Data reported in ChEMBL document CHEMBL1777720, “Novel, potent, and orally bioavailable phosphinic acid inhibitors of the hepatitis C virus NS3 protease” (Bioorg Med Chem Lett, 2011).

What was measured:
[1] = Inhibition of HCV 1a NS3/4A protease; set-up: species or system Hepatitis C virus subtype 1a
Hepatitis C virus = test: Antiviral activity against HCV genotype 1b infected in Huh7 cells assessed as inhibition of viral replication by cell-based replicon assay; format: functional, organism-based, Hepacivirus hominis; details: Huh-7
[2] = Clearance in dog at 1 mg/kg, iv; format: ADME, organism-based, Canis lupus familiaris; set-up: dose 1 mg/kg, route intravenous; details: in vivo
[3] = Clearance in rat at 0.4 mg/kg, iv; format: ADME, organism-based; set-up: dose 0.4 mg/kg, route intravenous; details: in vivo
[4] = Clearance in dog at 0.5 mg/kg, iv; format: ADME, organism-based, Canis lupus familiaris; set-up: dose 0.5 mg/kg, route intravenous; details: in vivo
[5] = Oral bioavailability in dog at 3 mg/kg; format: ADME, organism-based, Canis lupus familiaris; details: in vivo
[6] = Oral bioavailability in rat at 10.7 mg/kg, po; format: ADME, organism-based; details: in vivo
[7] = Oral bioavailability in dog at 4 mg/kg; format: ADME, organism-based, Canis lupus familiaris; details: in vivo

| Structure (SMILES) | IC50 [1] | EC50 (Hepatitis C virus) | clearance [2] | further results |
| --- | --- | --- | --- | --- |
| C=C[C@@H]1C[C@]1(NC(=O)[C@@H]1C[C@@H](Oc2cc(-c3csc(NC(C)C)n3)nc3cc(OC)ccc23)CN1C(=O)[C@@H](NC(=O)OC1CCCC1)C(C)(C)C)P(=O)(O)Cc1ccccc1Cl | 6 nM | 311 nM | – | – |
| C=C[C@@H]1C[C@]1(NC(=O)[C@@H]1C[C@@H](Oc2cc(-c3csc(NC(C)C)n3)nc3cc(OC)ccc23)CN1C(=O)[C@@H](NC(=O)OC1CCCC1)C(C)(C)C)P(=O)(O)Cc1ccccc1OC | 6 nM | 47 nM | – | – |
| COc1ccc2c(O[C@@H]3C[C@H]4C(=O)N[C@]5(P(=O)(O)Cc6ccccc6Cl)C[C@H]5CCCCCCC[C@H](NC(=O)OC5CCCC5)C(=O)N4C3)cc(-c3csc(NC(C)C)n3)nc2c1 | 3 nM | 5 nM | 0.19 L/h/kg | – |
| C=C[C@@H]1C[C@]1(NC(=O)[C@@H]1C[C@@H](Oc2cc(-c3csc(NC(C)C)n3)nc3cc(OC)ccc23)CN1C(=O)[C@@H](NC(=O)OC1CCCC1)C(C)(C)C)P(=O)(O)Cc1ccccc1 | 9 nM | 180 nM | – | clearance [3]: 2.2 L/h/kg; clearance [4]: 0.64 L/h/kg; bioavailability [5]: 4.6% |
| C=C[C@@H]1C[C@]1(NC(=O)[C@@H]1C[C@@H](Oc2cc(-c3csc(NC(C)C)n3)nc3cc(OC)ccc23)CN1C(=O)[C@@H](NC(=O)OC1CCCC1)C(C)(C)C)P(=O)(O)c1ccccc1 | 44 nM | 2650 nM | – | – |
| COc1ccc2c(O[C@@H]3C[C@H]4C(=O)N[C@]5(P(=O)(O)Cc6ccccc6OC)C[C@H]5/C=C/CCCCC[C@H](NC(=O)OC5CCCC5)C(=O)N4C3)cc(-c3csc(NC(C)C)n3)nc2c1 | 3 nM | 9 nM | 1.04 L/h/kg | – |
| C=C[C@@H]1C[C@]1(NC(=O)[C@@H]1C[C@@H](Oc2cc(-c3csc(NC(C)C)n3)nc3cc(OC)ccc23)CN1C(=O)[C@@H](NC(=O)OC1CCCC1)C(C)(C)C)P(=O)(O)CCCC | 8 nM | 49 nM | – | – |
| COc1ccc2c(O[C@@H]3C[C@H]4C(=O)N[C@]5(P(=O)(O)Cc6ccccc6Cl)C[C@H]5/C=C/CCCCC[C@H](NC(=O)OC5CCCC5)C(=O)N4C3)cc(-c3csc(NC(C)C)n3)nc2c1 | 1 nM | 5 nM | 0.56 L/h/kg | – |
| COc1ccc2c(O[C@@H]3C[C@H]4C(=O)N[C@]5(C(=O)O)C[C@H]5C=CCCCCC[C@H](NC(=O)OC5CCCC5)C(=O)N4C3)cc(-c3csc(NC(C)C)n3)nc2c1 [CILUPREVIR] | 1 nM | 1 nM | – | – |
| C=C[C@@H]1C[C@]1(NC(=O)[C@@H]1C[C@@H](Oc2cc(-c3csc(NC(C)C)n3)nc3cc(OC)ccc23)CN1C(=O)[C@@H](NC(=O)OC1CCCC1)C(C)(C)C)P(C)(=O)O | 6 nM | 69 nM | – | bioavailability [6]: 0.4%; clearance [3]: 1.72 L/h/kg |
| C=C[C@@H]1C[C@]1(NC(=O)[C@@H]1C[C@@H](Oc2cc(-c3csc(NC(C)C)n3)nc3cc(OC)ccc23)CN1C(=O)[C@@H](NC(=O)OC1CCCC1)C(C)(C)C)P(=O)(O)CC | 8 nM | 390 nM | – | – |
| COc1ccc2c(O[C@@H]3C[C@H]4C(=O)N[C@]5(P(=O)(O)Cc6ccccc6)C[C@H]5CCCCCCC[C@H](NC(=O)OC5CCCC5)C(=O)N4C3)cc(-c3csc(NC(C)C)n3)nc2c1 | 6 nM | 5 nM | 0.36 L/h/kg | bioavailability [7]: 6.4% |
| COc1ccc2c(O[C@@H]3C[C@H]4C(=O)N[C@]5(P(=O)(O)Cc6ccccc6)C[C@H]5/C=C/CCCCC[C@H](NC(=O)OC5CCCC5)C(=O)N4C3)cc(-c3csc(NC(C)C)n3)nc2c1 | 3 nM | 10 nM | – | – |
| COc1ccc2c(O[C@@H]3C[C@H]4C(=O)N[C@]5(P(=O)(O)Cc6ccccc6OC)C[C@H]5CCCCCCC[C@H](NC(=O)OC5CCCC5)C(=O)N4C3)cc(-c3csc(NC(C)C)n3)nc2c1 | 3 nM | 7 nM | 0.32 L/h/kg | – |
| COc1ccc2c(O[C@@H]3C[C@H]4C(=O)N[C@]5(P(=O)(O)O)C[C@H]5/C=C/CCCCC[C@H](NC(=O)OC5CCCC5)C(=O)N4C3)cc(-c3csc(NC(C)C)n3)nc2c1 | 1 nM | 5 nM | – | – |
| C=C[C@@H]1C[C@]1(NC(=O)[C@@H]1C[C@@H](Oc2cc(-c3csc(NC(C)C)n3)nc3cc(OC)ccc23)CN1C(=O)[C@@H](NC(=O)OC1CCCC1)C(C)(C)C)P(=O)(O)O | – | – | 0.67 L/h/kg | bioavailability [5]: 0.5% |
| C=C[C@@H]1C[C@]1(NC(=O)[C@@H]1C[C@@H](Oc2cc(-c3csc(NC(C)C)n3)nc3cc(OC)ccc23)CN1C(=O)[C@@H](NC(=O)OC1CCCC1)C(C)(C)C)P(=O)(O)C(C)C | 86 nM | 3080 nM | – | – |
